The results in this text go back to patent US20060293516A1, “Penicillin crystal and process for producing the same” (priority 2003, published 2006).

Molecules are shown by their SMILES.

Series [1] in a line: Storage stability of solid CMPB at room temperature, purity by liquid chromatography. In kind it is physicochemical. As to the method:
Five grams of the crystalline CMPB obtained in Example 1 (purity: 100%) and 5 g of the amorphous CMPB obtained in Reference Example 1 (purity: 99.2%) were placed in respective test tubes. These test tubes were sealed and stored at room temperature (20 to 30° C.) for 1 month. The respective purities of the CMPB samples were then determined using liquid chromatography.
(§1) One gram of crystalline CMPB (purity: 97%) prepared by storing the crystalline CMPB of Example 1 for 20 days at room temperature (about 25° C.) and 1.244 g of amorphous CMPB (purity: 78%) prepared by storing the amorphous CMPB of Reference Example 1 for 20 days at room temperature (about 25° C.) were used as test samples. Each sample was placed in flasks and 10 ml dichloromethane was added to dissolve the sample. These flasks were sealed. The dichloromethane solutions of CMPB samples were stirred at room temperature (about 25° C.) and, after 3.5 hours and after 5 hours, subjected to liquid chromatography to measure the amounts of CMPB remaining in the solutions. The amounts of the remaining CMPB were compared with the amount of CMPB in the crystalline CMPB sample or the amount of CMPB in the amorphous CMPB sample, which were measured prior to the test.

Series [2] in a line: Stability of CMPB in dichloromethane solution, remaining CMPB by liquid chromatography. In kind it is physicochemical. The conditions noted are these: stirred at room temperature (about 25° C.). As to the method: as §1, with “The dichloromethane solutions of CMPB samples were stirred at room temperature (about 25° C.) and, after 3.5 hours and after 5 hours, subjected to liquid chromatography to measure the amounts of CMPB remaining in the solutions.” left out

Where [3] appears, read: sealed test tube, room temperature (20 to 30° C.), 1 month, initial purity 100% (crystalline), 99.2% (amorphous).
[4] abbreviates: stored 20 days at room temperature (about 25° C.).

In the case of `C[C@@]1(CCl)SC2CC(=O)N2[C@H]1C(=O)OC(c1ccccc1)c1ccccc1` (stereo partly drawn) [amorphous CMPB, 2β-chloromethyl-2α-methylpenam-3α-carboxylic acid benzhydryl ester], the purity after storage was 67% in series [1] (setting [3]) and 78% in series [1] (setting [4]). In addition, the “amount of CMPB remaining in dichloromethane solution relative to initial amount” value is 86.8% in series [2] (after 3.5 hours) and 63.4% in series [2] (after 6 hours (so in the source)).
In the case of `C[C@@]1(CCl)SC2CC(=O)N2[C@H]1C(=O)OC(c1ccccc1)c1ccccc1` (stereo partly drawn) [crystalline CMPB, 2β-chloromethyl-2α-methylpenam-3α-carboxylic acid benzhydryl ester], the purity after storage in series [1] (setting [3]) was 95%; in series [1] (setting [4]), 97%. The “amount of CMPB remaining in dichloromethane solution relative to initial amount” value in series [2] (after 3.5 hours) and in series [2] (after 5 hours) was “exactly the same as the initial amount” throughout.
